Experimental data from patent US20210317090A1, “AMINO ACID DEPLETION AGENTS AS ANTIPROLIFERATIVE AGENTS” (University of Central Florida Research Foundation, Inc., priority 2018, published 2021).

Experiments:
L3.6pl cells = test: Ant-44 toxicity potentiation assay in L3.6pl cells; assay type: cell-based, human
Procedure: As performed previously with CHO K1 cells, L3.6pl cells were treated with compounds 9 (1666.177) and 10 (1666.255) and a fixed dose of Ant-44 to observe the potentiation effect. The 72 h IC50 dose of Ant-44 in L3.6pl cells was previously determined to be 4 μM. For this study, half that dose was used to replicate the large window used in the CHO experiments to look at reduction in cell viability. In a 96-well plate, L3.6pl cells were dosed with a fixed concentration of Ant-44 (2 μM) and increasing doses of compounds 9 (1666.177) and 10 (1666.255). Although both compounds were effective at reducing cell viability, higher doses were required compared to CHO K1 cells.
FIG. 6 is an example according to various embodiments, illustrating the ability of compounds 9 (1666.177) and 10 ([…]) to potentiate the effect of Ant-44 in L3.6pl cells. Cells were incubated for 72 h at 37° C. with the respective compound and Ant-44 (2 μM). A 250 μM AG solution was incubated with the cells for 24 h prior to addition of compounds. […] Both compounds are nontoxic at the second highest concentration tested (1 μM).

LAT-1 = biological target: T1, LAT-1 (Homo sapiens, UniProt Q01650); test: 3H-Leucine efflux assay; assay type: cell-based; conditions: L3.6pl
T1 construct: endogenous in cells; host or cells: L3.6pl human pancreatic cancer cells
T1 sequence (Q01650 whole entry): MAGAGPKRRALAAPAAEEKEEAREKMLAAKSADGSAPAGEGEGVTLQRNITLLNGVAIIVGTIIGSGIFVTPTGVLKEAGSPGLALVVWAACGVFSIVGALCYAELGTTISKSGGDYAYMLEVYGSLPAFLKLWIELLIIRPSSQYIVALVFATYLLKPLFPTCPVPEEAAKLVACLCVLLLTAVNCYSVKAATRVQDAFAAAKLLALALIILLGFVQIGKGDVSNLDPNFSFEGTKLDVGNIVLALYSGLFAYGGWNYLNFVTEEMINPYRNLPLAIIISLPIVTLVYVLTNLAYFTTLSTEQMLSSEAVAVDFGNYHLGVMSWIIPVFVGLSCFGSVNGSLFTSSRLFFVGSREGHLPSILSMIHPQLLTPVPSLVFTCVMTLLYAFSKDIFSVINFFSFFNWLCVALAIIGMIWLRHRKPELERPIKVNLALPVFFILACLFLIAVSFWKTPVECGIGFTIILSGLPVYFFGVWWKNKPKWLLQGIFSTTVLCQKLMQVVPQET
T1 sequence (P08195 102-630 partner): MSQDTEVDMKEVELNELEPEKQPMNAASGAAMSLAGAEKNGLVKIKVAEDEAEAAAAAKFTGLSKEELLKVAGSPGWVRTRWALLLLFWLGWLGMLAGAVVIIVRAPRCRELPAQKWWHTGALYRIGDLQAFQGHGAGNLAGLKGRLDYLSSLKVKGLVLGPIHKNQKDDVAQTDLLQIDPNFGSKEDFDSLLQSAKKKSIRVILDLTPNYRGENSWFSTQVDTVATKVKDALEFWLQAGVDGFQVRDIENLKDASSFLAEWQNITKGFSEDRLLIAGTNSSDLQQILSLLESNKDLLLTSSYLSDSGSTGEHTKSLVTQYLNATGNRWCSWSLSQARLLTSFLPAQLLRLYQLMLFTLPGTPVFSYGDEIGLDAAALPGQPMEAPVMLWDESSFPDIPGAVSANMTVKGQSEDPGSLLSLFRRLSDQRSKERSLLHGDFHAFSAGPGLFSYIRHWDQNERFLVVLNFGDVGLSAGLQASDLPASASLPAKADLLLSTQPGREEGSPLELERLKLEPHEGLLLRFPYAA
Text: JPH203 is not toxic to L3.6pl cells over this concentration range and time interval. FIG. 10E is an example according to various embodiments, illustrating results obtained for a Leu uptake inhibition experiment with compound 10. Note: the y-axis in FIG. 10E is in CPM per ug of protein to normalize the data and account for any potential losses of cells due to toxicity of compound 10. FIG. 10F is an example according to various embodiments, illustrating results obtained for a Leucine efflux experiment with LAT-1 inhibitor JPH-203. Briefly, the efflux procedure involved cells pre-incubated with ‘hot’ leucine (3H labeled) and washed to remove unbound radiolabeled Leucine. The cells were then incubated in the presence and absence of unlabeled Leucine (100 μM) and/or the LAT-1 inhibitor JPH-203 (30 μM). In the presence of unlabeled leucine, the cells released ‘hot’ 3H-leucine into the media which was measured via scintillation/radioactivity counts. This efflux or release from within the cell was inhibited by the presence of the LAT-1 inhibitor, JPH-203 (30 μM, FIG. 10F). Since JPH203 inhibits the import of unlabeled leucine then less unlabeled Leucine will enter the cell and less efflux of radiolabeled Leucine molecules from inside the cell will be observed. This is consistent with JPH-203 being a LAT-1 inhibitor. FIG. 10G is an example according to various embodiments, illustrating results obtained for a two minute Leucine efflux experiment with compound 10. Cells were pre-incubated with ‘hot’ leucine (^3H labeled) and washed to remove unbound radiolabeled Leucine. The cells were then incubated in the presence and absence of unlabeled “cold” Leucine (100 μM) and/or the compound 10 (20 μM). In the presence of unlabeled ‘cold’ leucine, the cells released ‘hot’ ^3H-leucine into the media which was measured via scintillation/radioactivity counting. […] The efflux experiment was repeated and the time for monitoring efflux increased to 30 minutes. […] In summary, compound 10 inhibits Leucine uptake and facilitates LAT-1 mediated efflux.
^3H-Leucine Efflux Assay ^3H-Leucine efflux experiments were performed according to the protocol developed by Hälfliger et al. (2018) (referenced below) with the following changes. Briefly, cells were preloaded with 12 μM stock of L-[^3H]leucine (79 Ci/mmol) to give a final concentration of ^3H-leucine was 1.2 μM in each well. […] The medium was then collected and mixed with scintillation fluid (Scintiverse™ BD Cocktail) and radioactivity measured (Beckman Coulter LS 6500 Multi-Purpose Scintillation Counter). […] The lysate (300 μL) was mixed with scintillation fluid and radioactivity was counted. Relative efflux was expressed as percentage radioactivity=100%×(radioactivity of medium)/(radioactivity of the medium+radioactivity of the cells). […]

CHO-MG cells = test: Rescue by exogenous native polyamines in CHO-MG cells; assay type: cell-based, Chinese hamster; conditions: toxic concentration of compound 10 (results not shown)
CHO K1 cells = test: Cytotoxicity dose-response (MTS cell viability) in CHO K1 cells; assay type: cell-based, Chinese hamster
Procedure: CHO K1 Studies. Wild type Chinese hamster ovary (CHO K1) cells were chosen to first study the synthetic compounds' impact on polyamine metabolism. The CHO K1 cell line has high polyamine transport activity and was useful in screening compounds for their polyamine transport inhibitor activity. A dose-response curve was obtained for each compound to determine their toxicity in CHO K1 cells after 48 h incubation. Compound 9 (1666.177) was non-toxic up to the highest dose tested (15 μM).
Regarding the biological studies performed in the following examples, it is noted that CHO K1, CHO-MG, and L3.6pl cells were grown in RPMI 1640 medium supplemented with 10% fetal bovine serum (FBS) and 1% penicillin/streptomycin. All cells were grown at 37° C. under a humidified 5% CO2 atmosphere. Aminoguanidine (1 mM used for CHO K1 and CHOMG cells and 250 μM for L3.6pl) was added to the growth medium to prevent oxidation of the compounds of the bovine serum amine oxidase enzyme that is present in calf serum. The cells used were in early to mid log phase and CHO and CHOMG were plated out at 1000 cells/well, whereas the L3.6pl cells were plated at 500 cells/well in a 96 well plate format.
This example illustrates aspects according to various embodiments pertaining to IC50 determinations and cell viability studies. Cell growth was assayed in sterile 96-well microtiter plates (Costar 3599, Corning, N.Y.). CHO K1 or CHOMG cells were plated at 1,000 cells/70 μL and L3.6pl cells at 500 cells/70 μL. The drug solutions of appropriate concentration in phosphate buffered saline (PBS) were added 10 μL per well after overnight incubation. After drug exposure (e.g., for 48 h for CHO K1 and CHO-MG and 48 h or 72 h for L3.6pl), cell growth was determined by measuring formazan formation from the 3-(4,5dimethylthiazol-2-yl)-5-(3-carboxymethoxyphenyl)-2-(4-sulfenyl)-2H tetrazolium, inner salt (MTS) using SynergyMx Biotek microplate reader for absorbance (490 nm) measurements.^27 All experiments were run in triplicate.

CC(C)CCN1CCN(C(CNCc2ccccc2)CC2CCCCC2)CC1CC(C)C.Cl.Cl.Cl (stereo not shown) [Compound 10, Benzyl-{3-cyclohexyl-2-[3-isobutyl-4-(3-methyl-butyl)-piperazin-1-yl]-propyl}-amine trihydrochloride salt]
effectiveness at increasing the potency of Ant-44 relative to compound 9 (L3.6pl cells): approximately eleven times more effective
EC50 (L3.6pl cells; Homo sapiens, Ant-44 2 μM, 72 h): 0.29 ± 0.1 µM
3H-leucine efflux, compound alone (LAT-1; 2 min, JPH-203 30 μM or compound 10 20 μM): slight increase in efflux
efflux of radiolabeled leucine (LAT-1; 30 minutes, in presence and absence of leucine (1 μM), vs untreated control (FIG. 10H)): increased efflux
rescue of treated cells by native polyamines (CHO-MG cells): unable to rescue
toxicity of compound alone (CHO K1 cells; CHO K1, highest concentration tested (5 μM), 48 h): nontoxic
IC50 (CHO K1 cells; Cricetulus griseus, CHO K1 cells, 48 h incubation): 10.8 ± 0.22 µM
